Source: PMC3794980, “Identification of Conserved and HLA Promiscuous DENV3 T-Cell Epitopes” (PLoS Neglected Tropical Diseases, 2013)
Where two headings read alike, the source gives them in different places. Where no end group is shown, it is not given here.

How the values were obtained:
Assay in all cases: biochemical
Format in all cases: binding
DRB1*1302 = DRB1*1302 (Homo sapiens, UniProt P01903+P01911, A100E/A169T/K41T/L162R/M171V/P40S/Q125H/Q178H/Q39Y/Q99D/R42S/S66N/T262R/V115G/W38E/Y61H); settings: competitive inhibition of radiolabeled standard peptide, read-out: Binding Affinity (nM) DRB1*1302
DRB1*0405 = DRB1*0405 (Homo sapiens, UniProt P01903+P01911, A100R/A169T/D86S/F76Y/I96L/K127E/L162R/M171V/N62H/P40V/Q125Y/R42H/S133A/S149N/S66Y/V115G/V209L/W38E)
DRB3*0101 = DRB3*0101 (Homo sapiens, UniProt P01903+P79483)
DRB1*1101 = DRB1*1101 (Homo sapiens, UniProt P01903+P01911, A100R/A169T/A87E/I96F/K41T/L162R/M171V/P40S/Q125H/Q178H/Q39Y/Q99D/R42S/S66Y/T262R/V115G/W38E)
DRB1*0901 = DRB1*0901 (Homo sapiens, UniProt P01903+P01911, A100R/A103E/D57H/D86V/F55Y/F60I/F76Y/I96F/K127E/L162R/M171V/P40D/Q125H/Q99R/R33Q/R42F/S133A/S66N/T210M/V115G/W38K/Y107V/Y59G/Y89S); settings: competitive inhibition of radiolabeled standard peptide, read-out: Binding Affinity (nM) DRB1*0901
DRB1*0301 = DRB1*0301 (Homo sapiens, UniProt P01903+P01911, A100K/A102G/A103R/A169T/F55Y/I96L/K41T/L162R/M171V/P40S/Q125H/Q178H/Q39Y/R42S/S66N/T106N/T262R/W38E/Y61H)
DRB1*0701 = DRB1*0701 (Homo sapiens, UniProt P01903+P01911, A100R/A102G/A103Q/D57E/D86V/E43K/F76Y/K127E/L162R/M171V/P40G/Q125H/Q99D/R33Q/R42Y/R54Q/S133A/S66F/T210M/V115G/Y107V/Y59L/Y89S)
DRB1*0802 = DRB1*0802 (Homo sapiens, UniProt P01903+P01911, A100R/A103L/A169T/F76Y/H45Y/I96F/K41T/L162R/M171V/P40S/Q125H/Q178H/Q39Y/Q99D/R218S/R42G/S66Y/V115G/W38E)
DRB4*0101 = DRB4*0101 (Homo sapiens, UniProt P01903+P13762, G164S)
DRB1*0101 = DRB1*0101 (Homo sapiens, UniProt P01903+P01911, A100R/D57E/F55L/F60I/F76Y/I96L/L162R/M171V/P40L/Q125E/R42F/V115G/Y59C)
DRB1*0401 = DRB1*0401 (Homo sapiens, UniProt P01903+P01911, A100K/A169T/F76Y/I96L/K127E/L162R/M171V/N62H/P40V/Q125Y/R42H/S133A/S149N/S66Y/V115G/V209L/W38E)
DRB1*0404 = DRB1*0404 (Homo sapiens, UniProt P01903+P01911, A100R/A169T/F76Y/I96L/K127E/L162R/M171V/N62H/P40V/Q125Y/R42H/S133A/S149N/S66Y/V209L/W38E)
DRB1*1501 = DRB1*1501 (Homo sapiens, UniProt P01903+P01911)
DRB5*0101 = DRB5*0101 (Homo sapiens, UniProt P01903+Q30154)

Chain of DRB1*1101 (P01903 26-254, other chains not shown): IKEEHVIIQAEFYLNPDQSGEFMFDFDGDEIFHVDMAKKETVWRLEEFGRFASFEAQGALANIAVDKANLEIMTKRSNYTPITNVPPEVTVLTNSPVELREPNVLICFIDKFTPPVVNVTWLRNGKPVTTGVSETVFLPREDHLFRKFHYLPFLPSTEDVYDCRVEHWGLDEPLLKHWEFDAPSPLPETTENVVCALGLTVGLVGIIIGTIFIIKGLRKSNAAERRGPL
Chain of DRB1*0301 (P01903 26-254, other chains not shown): as above
Chain of DRB1*1302 (P01903 26-254 limits assumed, other chains not shown): as the sequence (P01903 26-254, other chains not shown) above

| Compound | IC50 (DRB1*1302; '-' distinct from ND) [nM] | IC50 (DRB1*0405) [µM] | IC50 (DRB3*0101) [µM] | IC50 (DRB1*1101) [µM] | IC50 (DRB1*0901; '-' distinct from ND) [nM] | IC50 (DRB1*0301) [µM] | IC50 (DRB1*0701) [µM] | IC50 (DRB1*0802) [µM] | IC50 (DRB4*0101) [µM] | IC50 (DRB1*0101) [µM] | IC50 (DRB1*0401) [µM] | IC50 (DRB1*0404) [µM] | IC50 (DRB1*1501) [µM] | IC50 (DRB5*0101) [µM] | IC50 (DRB1*1302; DRB1*1302) [nM] | IC50 (DRB1*0901; DRB1*0901) [nM] |
| --- | --- | --- | --- | --- | --- | --- | --- | --- | --- | --- | --- | --- | --- | --- | --- | --- |
| CC[C@H](C)[C@H](NC(=O)[C@H](CC(C)C)NC(=O)[C@H](CCCNC(=N)N)NC(=O)CNC(=O)[C@@H](N)CC(N)=O)C(=O)N[C@H](C(=O)N[C@@H](C)C(=O)N[C@@H](CC(N)=O)C(=O)N1CCC[C@H]1C(=O)N[C@H](C(=O)N[C@H](C(=O)N[C@H](C(=O)N[C@@H](CCCCN)C(=O)N[C@@H](CCCCN)C(=O)N[C@@H](CCC(=O)O)C(=O)O)[C@@H](C)O)C(C)C)C(C)C)[C@@H](C)O [Envelope 346-360] | 15 | 6.74 | 18.3 | 10.6 | 333 | 0.216 | 0.068 | 0.288 | 3 | 0.0045 | 0.343 | 15.3 | 0.332 | – | – | – |
| EGKVVQYENLKYTVI [Envelope 126-140] | 1480 | 0.09 | 2.07 | 8.98 | 3860 | 0.692 | 2.31 | 0.037 | 0.059 | 0.98 | 1.38 | 6.05 | 0.021 | 2.47 | – | – |
| CC[C@H](C)[C@H](NC(=O)[C@H](Cc1c[nH]c2ccccc12)NC(=O)[C@H](Cc1ccc(O)cc1)NC(=O)CNC(=O)[C@H](CCSC)NC(=O)[C@H](CC(=O)O)NC(=O)[C@H](C)NC(=O)[C@H](Cc1c[nH]cn1)NC(=O)[C@@H](NC(=O)[C@H](C)N)C(C)C)C(=O)N[C@@H](CCC(=O)O)C(=O)N[C@@H](CO)C(=O)N[C@@H](CCC(N)=O)C(=O)N[C@@H](CCCCN)C(=O)N[C@@H](CC(N)=O)C(=O)O [NS1 193-207] | 33 | 3.24 | 0.024 | 13.9 | 9890 | 2.59 | 7.97 | 12.9 | 0.18 | 1.2 | 3.54 | 5.81 | 6.34 | 10.4 | – | – |
| CC[C@H](C)[C@H](NC(=O)[C@H](CC(N)=O)NC(=O)CNC(=O)[C@@H](NC(=O)CNC(=O)[C@H](CC(N)=O)NC(=O)[C@@H](N)CO)[C@@H](C)O)C(=O)N[C@H](C(=O)N[C@@H](CO)C(=O)N[C@@H](CO)C(=O)N[C@H](C(=O)N[C@@H](CC(N)=O)C(=O)N[C@@H](CCSC)C(=O)N[C@H](C(=O)N[C@@H](CO)C(=O)N[C@@H](CCCNC(=N)N)C(=O)N[C@@H](CC(C)C)C(=O)O)C(C)C)C(C)C)C(C)C [NS5 221-237] | – | 0.025 | 6.3 | 0.031 | – | 0.015 | 0.021 | 0.0058 | 0.06 | 0.004 | 0.0011 | 0.084 | 0.02 | – | 65 | 45 |
| CC(C)C[C@H](NC(=O)[C@H](C)NC(=O)[C@H](CCC(=O)O)NC(=O)[C@H](Cc1ccccc1)NC(=O)[C@H](CCC(=O)O)NC(=O)[C@H](CC(C)C)NC(=O)[C@H](Cc1ccc(O)cc1)NC(=O)[C@H](CCCNC(=N)N)NC(=O)[C@H](C)NC(=O)CNC(=O)[C@H](CC(C)C)NC(=O)[C@@H](N)Cc1c[nH]c2ccccc12)C(=O)NCC(=O)N[C@@H](Cc1ccccc1)C(=O)N[C@@H](CC(C)C)C(=O)N[C@@H](CC(N)=O)C(=O)N[C@@H](CCC(=O)O)C(=O)O [NS5 477-493] | – | 0.054 | 0.026 | 0.71 | – | 2.42 | 0.026 | 2.28 | 0.274 | 0.012 | 0.067 | 0.124 | 0.338 | – | 9750 | 79 |
| C[C@@H](O)[C@H](NC(=O)[C@H](CO)NC(=O)[C@H](CO)NC(=O)[C@H](Cc1c[nH]cn1)NC(=O)[C@H](CCC(=O)O)NC(=O)[C@H](CCC(=O)O)NC(=O)[C@@H](N)CCCCN)C(=O)N[C@@H](Cc1c[nH]c2ccccc12)C(=O)N[C@@H](Cc1c[nH]cn1)C(=O)N[C@@H](Cc1ccc(O)cc1)C(=O)N[C@@H](CC(=O)O)C(=O)N[C@@H](CC(=O)O)C(=O)N[C@@H](CCC(=O)O)C(=O)N[C@@H](CC(N)=O)C(=O)N1CCC[C@H]1C(=O)N[C@@H](Cc1ccc(O)cc1)C(=O)N[C@@H](CCCCN)C(=O)O [NS5 284-300] | – | 8.69 | 0.017 | 1.4 | – | 0.0093 | 2.49 | 1.54 | 14.1 | 2.1 | 0.306 | 18.2 | 5.9 | – | 2030 | 8140 |
| CSCC[C@H](NC(=O)[C@@H](NC(=O)[C@H](Cc1ccccc1)NC(=O)[C@H](CCCNC(=N)N)NC(=O)[C@H](CC(N)=O)NC(=O)[C@H](CC(C)C)NC(=O)[C@H](CC(C)C)NC(=O)[C@H](CC(C)C)NC(=O)[C@H](CCCNC(=N)N)NC(=O)[C@H](CO)NC(=O)[C@@H](NC(=O)[C@@H](N)CCSC)C(C)C)[C@@H](C)O)C(=O)N[C@H](C(=O)N[C@@H](Cc1c[nH]cn1)C(=O)N[C@@H](CCCNC(=N)N)C(=O)N[C@@H](CCCNC(=N)N)C(=O)O)[C@@H](C)O [NS5 233-248] | – | 0.699 | 2.24 | 0.016 | – | 0.327 | 0.097 | 0.159 | 0.617 | 0.108 | 0.057 | 1.07 | 0.307 | – | 34 | 569 |
| CC(C)C[C@H](NC(=O)[C@H](C)NC(=O)[C@H](CC(C)C)NC(=O)[C@@H]1CCCN1)C(=O)N[C@@H](CCCCN)C(=O)N[C@@H](CCC(=O)O)C(=O)N[C@@H](Cc1ccccc1)C(=O)N[C@@H](CCCCN)C(=O)N[C@@H](CC(=O)O)C(=O)N[C@@H](Cc1ccccc1)C(=O)N[C@@H](C)C(=O)N[C@@H](C)C(=O)NCC(=O)N[C@@H](CCCNC(=N)N)C(=O)N[C@@H](CCCCN)C(=O)O [NS3 605-619] | – | 5.55 | 3.38 | 8.89 | – | 4.44 | 3.45 | 0.037 | 1.36 | 4.35 | 4.73 | 2.22 | 0.028 | 0.02 | 19600 | 9320 |
